Values of other authors, collected in patent US20250170078A1, “STABLE PHARMACEUTICAL COMPOSITIONS OF HYDROXYUREA” (Slayback Pharma LLC., priority 2022, published 2025).

Tests used:
[1] = oral
[2] = not given; remark: listed apart in the source
[3] = on its own
[4] = patients, dose escalation based on blood counts

**Q.** Which solubility in water does the source give for `NC(=O)NO` [Hydroxyurea] here?
**A.** freely soluble

**Q.** And the “absorption from the gastrointestinal tract” value [1]?
**A.** almost completely absorbed

**Q.** And the “stability in aqueous solutions” value [2]?
**A.** poor stability

**Q.** And the antimicrobial activity [3]?
**A.** high level of antimicrobial activity

**Q.** And the maximum tolerable dose [4]?
**A.** 35 mg/kg/day
